Assay results as given in patent US11202751B2, “Whitening cosmetic composition comprising Caragana sinica root extract” (CELLTRION, INC., priority 2015, dated 2021).

Key:
[1] = tested on: tyrosinase, isolated and refined from a mushroom; assay: Tyrosinase activity inhibition (absorbance at 475 nm, L-tyrosine substrate); format: biochemical
Experimental: A tyrosinase is an enzyme that promotes an oxidization process of a substance called tyrosine in vivo to produce a melanin. […] After that, 0.5 ml of a resulting L-tyrosine solution was inserted into a test tube, after which 0.5 ml of a sample fluid of the above Caragana Sinica root extract and the fraction thereof was added thereto, such that the test tube of a resulting mixture was left alone in a 37° C. constant temperature chamber for 10 minutes. […] The reaction was stopped by placing the test tube containing that reaction solution on ice to be rapidly cooled down, after which an absorbance of the resulting product was measured with a spectrophotometer at a wavelength of 475 nm. Control group was one containing 0.5 ml of a buffer solution instead of the Caragana Sinica root extract, and the comparison target was arbutin, well-known as a skin whitening agent. At that time, an inhibition rate of tyrosinase activity (%) was calculated according to the following Mathematical formula 1, wherein results thereof were shown in the following Table 2. [formula] [formula]

[2] = tested on: B16F1 melanin-forming cell; assay: Melanin production inhibition in B16F1 melanin-forming cells; format: cell-based; settings: Mus musculus, B16-F1, 72 hours, read-out: Inhibition rate of melanin production (%)
Excerpt: In order to confirm a whitening effect of the ethanol extract of Caragana Sinica root and the fraction thereof prepared in the above Examples 1 to 5, its effect on inhibiting a production of melanin was confirmed with regard to a B16F1 melanin-forming cell.
Specifically, the B16F1 melanin-forming cells, as a mouse-derived cell line, were obtained from American Type Culture Collection (ATCC) to use. The B16F1 melanin-forming cells were divided into a 6-well plate at a concentration of 2×10^5 per well, after which the cells were attached thereto, thus being divided at such a concentration as not to cause toxicity. […] After this 72-hour cultivation, the cells were taken off by trypsin-EDTA, after which the number of cells was measured, and then cells were collected by centrifugation. A quantification of melanin in cells was performed in such a way that modifying method of Lotan (Cancer Res., 40: 3345-3350, 1980). […] 1N NaOH (10% DMSO) was added to a cell lysate obtained through centrifugation (3,000 rpm, 10 minutes) so as to dissolve the extracted melanin, after which an absorbance of the melanin was measured by microplate reader at 405 nm, and the melanin was quantified to measure an inhibition rate of melanin production (%) of a sample. […]

[3] = tested on: B16F1 melanin-forming cell; assay: Inhibition of α-MSH-induced melanin production in B16F1 cells; format: cell-based, mouse; settings: for IC50: B16F1, 70 to 74 hours
Experimental: Specifically, the B16F1 melanin-forming cells, as a mouse-derived cell line, were obtained from American Type Culture Collection (ATCC) to use. The B16F1 melanin-forming cells were divided into a 6-well plate at a concentration of 2×10^5 per well, after which the cells were attached thereto, thus being divided at such a concentration as not to cause toxicity. After that, the ethanol extract of Caragana Sinica root and the fraction thereof obtained from the above Examples 1 to 5 were treated at each concentration, and then being cultured for 72 hours. After this 72-hour cultivation, the cells were taken off by trypsin-EDTA, after which the number of cells was measured, and then cells were collected by centrifugation. A quantification of melanin in cells was performed in such a way that modifying method of Lotan (Cancer Res., 40: 3345-3350, 1980). A cell pallet was washed once with PBS, after which 1 ml of a homogenization buffer solution (50 mM sodium phosphate, pH6.8, 1% Triton X-100, 2 mM PMSF) was added thereto and swirled for 5 minutes to crush the cells. 1N NaOH (10% DMSO) was added to a cell lysate obtained through centrifugation (3,000 rpm, 10 minutes) so as to dissolve the extracted melanin, after which an absorbance of the melanin was measured by microplate reader at 405 nm, and the melanin was quantified to measure an inhibition rate of melanin production (%) of a sample. The inhibition rate of melanin production (%) of the B16F1 melanin-forming cell was calculated according to the following [Mathematical formula 2], wherein results thereof were indicated at Table 3.
In order to confirm whitening effect of α-viniferin isolated from the fraction of Caragana Sinica root of the above Example 4, its effect on inhibiting a production of melanin was confirmed with regard to a B16F1 melanin-forming cell.
Specifically, the α-viniferin isolated from the ethyl acetate fraction of the ethanol extract of Caragana Sinica root obtained from the above Example 4 or arbutin, and α-MSH, a stimulant of melanin production, were treated at the same time, after which an amount of melanin was measured in 70 to 74 hours later as describe in the above Example 2-2.

[4] = Stability of isolated α-viniferin at 50° C. (HPLC content); format: physicochemical; settings: for content by HPLC / content relative to initial: 50° C.
Experimental: In order to confirm a stability of α-viniferin, the α-viniferin isolated from the ethyl acetate fraction of the ethanol extract of Caragana Sinica root obtained from the above Experimental Example 1 was stored under a condition of 50° C. for 2 weeks, after which content changes thereof were observed through an HPLC analysis by the same method of the above Experimental Example 1. A control group was kobophenol A isolated from the Caragana Sinica root extract, which was stored under the same condition with that of the α-viniferin, after which content changes thereof were observed by the same method.

Row | Compound | Inhibition rate of tyrosinase activity (%) ([1]; sample concentration 0.05%) | Inhibition rate of tyrosinase activity (%) ([1]; sample concentration 0.1%) | Inhibition rate of tyrosinase activity (%) ([1]; sample concentration 0.2%) | inhibition at 100 µg/mL ([2]; 100 μg/ml) [%] | inhibition at 200 µg/mL ([2]; 200 μg/ml) [%] | inhibition at 100 µM ([3]; Mus musculus, B16-F1, 100 μM, read-out: inhibition rate of melanin production induced by α-MSH) [%] | inhibition at 200 µM ([3]; Mus musculus, B16-F1, 200 μM, read-out: inhibition rate of melanin production induced by α-MSH) [%] | inhibition at 400 µM ([3]; Mus musculus, B16-F1, 400 μM, read-out: inhibition rate of melanin production induced by α-MSH) [%] | IC50 ([3]; Mus musculus, B16-F1) [µM] | content change at high temperature (in words) ([4]; 50° C. for 2 weeks) | content by HPLC ([4]; 1 week) [ppm] | content relative to initial ([4]; 1 week) [%] | content by HPLC ([4]; 2 weeks) [ppm] | content relative to initial ([4]; 2 weeks) [%] | content by HPLC ([4]; Initial) [ppm] | inhibition at 4 µM ([3]; Mus musculus, B16-F1, 4 μM, read-out: inhibition rate of melanin production induced by α-MSH) [%] | inhibition at 6 µM ([3]; Mus musculus, B16-F1, 6 μM, read-out: inhibition rate of melanin production induced by α-MSH) [%] | inhibition at 8 µM ([3]; Mus musculus, B16-F1, 8 μM, read-out: inhibition rate of melanin production induced by α-MSH) [%] | whitening effect on α-MSH-induced melanin production, times higher than that of arbutin ([3]; ratio of IC50 values vs arbutin)
1 | OC[C@H]1O[C@@H](Oc2ccc(O)cc2)[C@H](O)[C@@H](O)[C@@H]1O [Arbutin, arbutin] | 21.2 | 38.4 | 78.7 | 63.5 | 75.7 | 13 | 44 | 73 | 242 |  |  |  |  |  |  |  |  |  | 
2 | Oc1ccc(C2Oc3cc(O)cc4c3[C@@H]2c2cc(O)cc3c2C(c2cc(O)cc5c2[C@@H]4[C@H](c2ccc(O)cc2)O5)[C@H](c2ccc(O)cc2)O3)cc1 (stereo partly drawn) [α-viniferin] |  |  |  |  |  |  |  |  | 7 | not decreased | 249.60 | 98.7 | 253.45 | 100.3 | 252.8 | 8 | 21 | 63 | about 35 times
3 | kobophenol A |  |  |  |  |  |  |  |  |  |  | 115.6 | 95.2 | 103.6 | 85.3 | 121.4 |  |  |  | 
